This is an account of results in patent US9371294B2, “Cycloalkenyl aryl derivatives for CETP inhibitor” (CHONG KUN DANG PHARMACEUTICAL CORP., priority 2011, dated 2016).

A word on the IC50: it is the concentration that gives 50% inhibition.

The target of series [1] is T1, cholesteryl ester transfer protein (Homo sapiens, UniProt P11597).
T1 construct: As a source of cholesteryl ester transfer protein, plasma from healthy humans was used; from tissue; host or cells: plasma from healthy humans
T1 sequence (P11597 18-493): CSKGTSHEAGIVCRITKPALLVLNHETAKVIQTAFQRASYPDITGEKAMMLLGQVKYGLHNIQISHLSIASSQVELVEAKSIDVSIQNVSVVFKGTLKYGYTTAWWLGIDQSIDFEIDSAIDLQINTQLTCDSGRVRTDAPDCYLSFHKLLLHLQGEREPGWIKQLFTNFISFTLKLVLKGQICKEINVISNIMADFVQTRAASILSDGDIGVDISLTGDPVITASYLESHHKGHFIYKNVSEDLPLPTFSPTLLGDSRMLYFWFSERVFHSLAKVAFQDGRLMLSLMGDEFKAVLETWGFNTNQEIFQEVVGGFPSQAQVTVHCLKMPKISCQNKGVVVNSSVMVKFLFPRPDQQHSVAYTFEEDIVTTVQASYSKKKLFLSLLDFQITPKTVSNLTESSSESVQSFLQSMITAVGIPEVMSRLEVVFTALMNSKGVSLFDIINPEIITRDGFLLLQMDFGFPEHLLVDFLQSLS
Nature of the series: In vitro test for the ability to inhibit cholesteryl ester transfer. Type of series: biochemical. The conditions noted are these: [3H]-cholesteryl oleate transfer from rHDL-agarose to LDL; human plasma as CETP source; 37° C.; 16-10000 nM, duplicate. The gist of the method:
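Human plasma served as the CETP source, with human LDL (0.25 mg/ml) as acceptor and agarose-immobilised recombinant HDL carrying [3H]-cholesteryl oleate (0.25 mg/ml) as donor, at 37 °C. Compounds were run in duplicate at 16–10000 nM. Transferred radioactivity in the supernatant was counted by beta detection, and IC50 was fitted from the fraction of label transferred to LDL.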

The test system of series [2] is golden syrian hamsters. As to the kind of experiment: Test for anti-hyperlipidemia activity in hamsters (blood HDL-c levels). Type of series: in vivo. The note with it: male golden syrian hamsters; 3 mg/kg orally for 5 days; serum HDL-cholesterol 4 hours after last administration; vs vehicle control. An excerpt: […] Test for Anti-Hyderlipidemia Activity in Hamsters
1. Experimental animals As test animals, 8-week-old male golden syrian hamsters were purchased and used in the experimental. The animal facility was kept at constant temperature and constant humidity with a 12-hr dark/12-hr light cycle, and the animals were allowed to access food and water ad libitum.
2. Experimental for Anti-Hyperlipidemia Activity in Hamsters
The test animals were used in the test after an acclimation of 1 week. The test animals were divided according to body weight into several groups, each consisting of 5-8 animals. 3 mg/kg of each test compound (CETP inhibitor) was administered orally to the animals. Each test compounds was suspended in a solvent vehicle that is a solution of 5% ethanol, 10% solutol and 85% deionized water (DW), to be used. Each of test compounds suspended in a solvent vehicle was administered orally to the […] for 5 days. To the control group, a solvent vehicle itself was administered. And then, after 4 hours from the last administration, blood was collected through the cardiac puncture. The collected blood was centrifuged at 3000 rpm for 15 minutes, and the concentration of HDL-cholesterol (Biosystem) in the separated serum was measured using a biochemical analyzer (ILab 300 plus, Instrumentation Laboratory).
3. Statistical Processing
All the results were expressed as mean±SEM, and each test group and the control group were compared using one-way ANOVA test (Dunnett's test, p<0.001) in order to determine the effect of each test group.

The conditions of series [3]: cited from earlier work.

`COc1ccc(N(C)C(C)=O)cc1C1=C(CN2C(=O)O[C@H](c3cc(C(F)(F)F)cc(C(F)(F)F)c3)[C@@H]2C)CC(C)(C)CC1` [Compound 112, N-(3-(2-(((4S,5R)-5-(3,5-bis(trifluoromethyl)phenyl)-4-methyl-2-oxooxazolidin-3-yl)methyl)-4,4-dimethylcyclohex-1-enyl)-4-methoxyphenyl)-N-methylacetamide] showed an IC50 in series [1] of 0.008 µM. For the same molecule, the “HDL-c Increase (%)” value in series [2] was found to be 43%.

In series [1], `COc1ccc(C(C)(C)C)cc1C1=C(CN2C(=O)O[C@H](c3cc(C(F)(F)F)cc(C(F)(F)F)c3)[C@@H]2C)CC(C)(C)CC1` [Compound 115, (4S,5R)-5-(3,5-bis(trifluoromethyl)phenyl)-3-((2-(5-tert-butyl-2-methoxyphenyl)-5,5-dimethylcyclohex-1-enyl)methyl)-4-methyloxazolidin-2-one] showed a half-inhibitory concentration (IC50) of 0.01 µM. Also, the “HDL-c Increase (%)” value in series [2] is listed as 29%.

In the case of `COc1cc(F)c(C(C)C(F)(F)F)cc1C1=C(CN2C(=O)O[C@H](c3cc(C(F)(F)F)cc(C(F)(F)F)c3)[C@@H]2C)CC(C)(C)CC1` (stereo partly drawn) [Compound 132, (4S,5R)-5-(3,5-bis(trifluoromethyl)phenyl)-3-((2-(4-fluoro-2-methoxy-5-(1,1,1-trifluoropropan-2-yl)phenyl)-5,5-dimethylcyclohex-1-enyl)methyl)-4-methyloxazolidin-2-one], the IC50 in series [1] came out at 0.05 µM. For the same molecule, the “HDL-c Increase (%)” value in series [2] is on record as 33%.

`COc1cc(F)c(C(C)C)cc1C1=C(CN2C(=O)O[C@H](c3cc(C(F)(F)F)cc(C(F)(F)F)c3)[C@@H]2C)CC2(CC1)CC2` [Compound 274, (4S,5R)-5-(3,5-bis(trifluoromethyl)phenyl)-3-((6-(4-fluoro-5-isopropyl-2-methoxyphenyl)spiro[2.5]oct-5-en-5-yl)methyl)-4-methyloxazolidin-2-one]: the IC50 in series [1] amounted to 0.014 µM. Further, the “HDL-c Increase (%)” value in series [2] was determined as 21%.

For the molecule `COc1ccc(CC(C)(C)C(=O)O)cc1C1=C(CN2C(=O)O[C@H](c3cc(C(F)(F)F)cc(C(F)(F)F)c3)[C@@H]2C)CC(C)(C)CC1` [Compound 286, 3-(3-(2-(((4S,5R)-5-(3,5-bis(trifluoromethyl)phenyl)-4-methyl-2-oxooxazolidin-3-yl)methyl)-4,4-dimethylcyclohex-1-enyl)-4-methoxyphenyl)-2,2-dimethylpropanoic acid], the concentration for half-maximal inhibition (IC50) in series [1] amounted to 0.012 µM. Moreover, the “HDL-c Increase (%)” value in series [2] stood at 42%.

In turn, `COc1cc(F)c(C2(C)CC2)cc1C1=C(CN2C(=O)O[C@H](c3cc(C(F)(F)F)cc(C(F)(F)F)c3)[C@@H]2C)CC(C)(C)CC1` [Compound 302, (4S,5R)-5-(3,5-bis(trifluoromethyl)phenyl)-3-((2-(4-fluoro-2-methoxy-5-(1-methylcyclopropyl)phenyl)-5,5-dimethylcyclohex-1-enyl)methyl)-4-methyloxazolidin-2-one] registered a 50% inhibitory concentration (IC50) in series [1] of 0.006 µM. Moreover, the “HDL-c Increase (%)” value in series [2] is 38%.

On to `CCC(CC)CC1(C(=O)Nc2ccccc2SC(=O)C(C)C)CCCCC1` [Dalcetrapib], for which the “rise in HDL-C” value in series [3] (in vivo) is listed as “insufficient rise in HDL-C”.

Take `O=C(O)c1cccnc1` [Niacin]: in series [3] (relatively large doses), the side effects result is “facial flushing”.

As for `CCOC(=O)N1c2ccc(C(F)(F)F)cc2[C@@H](N(Cc2cc(C(F)(F)F)cc(C(F)(F)F)c2)C(=O)OC)C[C@H]1CC` [Torcetrapib], in series [3] (clinical trials terminated), the “effect on blood pressure” value is “increases in blood pressure” and the effect on mortality result was “increase in mortality”. Moreover, the “effect on hormone levels” value in series [3] (hormones associated with elevation in blood pressure) is “increases the levels of hormones, such as aldosterone and cortisol”. In addition, the “effect on vascular wall” value in series [3] (in vivo) is “increases the thickness of the vascular wall to cause inflammation”.
